Source: US9375450B2, “Vaginal tissue rejuvenation compositions and methods” (priority 2011, dated 2016)

Legend:
[1] = tested on: rat vaginal Col1a1, Col3a1, Col5a1 mRNA; assay: qRT-PCR of vaginal collagen gene expression after 2 weeks vaginal suppositories; format: in vivo; settings: OVX rats, vaginal suppositories 2 weeks, mean±SD; for ratio of vaginal Col1a1 to Col3a1 mRNA expression: placebo 0.78±0.2; for ratio of vaginal Col1a1 to Col5a1 mRNA expression: placebo 4.3±1.9
Description: Ten to 12-weeks old female ovariectomized (OVX) Sprague-Dawley rats were utilized for the experiments. The animals were acclimatized to the environmental conditions before starting the experiment. The animals were housed individually and were allowed free access to water and rodent food. Two weeks after the ovariectomy rats (n=36) were divided into five groups: control (receiving placebo suppositories, n=8), Zinc (receiving zinc sulfate containing suppositories, n=8), GW (receiving GW501516 containing suppositories, n=8), Zinc with GW (receiving Zinc with GW 501516 containing suppositories, n=8) and Estradiol (receiving estradiol containing suppositories, n=4).
The suppositories were prepared according to the fusion method, using a polypeg suppository base (MEDISCA, N.Y., USA). […] Using a microwave, the suppository base was melted in a small beaker for 3 min and then transferred and kept into a water bath at a temperature of 55° C. The proper amount of above reagent was added to the liquefied base and meticulously crushed with a smooth rounded-end glass rod for about 20 min to make the solution to be even and clear. A pipette tip was used to suck some amount of solution and push it into a plastic tube with a diameter of 3.5 mm, and the tube was immediately left on the flat surface of an ice bucket. The suppository turned to white in color when it was solid. The moulded suppository was then pushed out of the tube using a round rod. The moulded suppository was cut using a razor blade to a length of 1.2 cm each, which was calibrated to equal a volume of 50±5 μl per each suppository. After 30 min of cooling at room temperature, the suppositories were stored at 4° C. in a closed chamber until use. They were left to reach room temperature before use.
Total RNA was isolated from 20 mg of vaginal rat tissue in each experimental rat group using the RNeasy Mini kit (Qiagen) according to the manufacturer's specifications. For each total RNA preparation, DNase digestion was performed to remove contaminating genomic DNA. Total RNA samples from each tissue were quantified and evaluated for RNA integrity by the Agilent Bioanalyzer 2100 (Applied Biosystems, Foster City Calif., USA). Following RNA extraction, cDNA was reverse transcribed from ˜500 ng of each total RNA preparation using the qScript cDNA synthesis kit (Quanta Biosciences, Gaithersburg Md., USA). Finally, cDNA samples were used to perform gene expression analysis by qRT-PCR using SYBR Green technology on the RealPlex EP Mastercycler (Eppendorf, Germany) of five genes with known roles in vaginal tissue reconstruction: Collagen IaI (col 1a1), Collagen IIIaI (col 3a1), Collagen VaI (col 5a1), Elastin (eln), Tensin I (tns-1). Glyceraldehyde-3 Phosphate Dehydrogenase (gapdh) was used as a positive control to normalize the expression of each gene. Each qRT-PCR reaction was run in triplicate using Perfecta SYBR Green Supermix (Quanta Biosciences, Gaithersburg Md., USA) in 25 μL reaction volumes using a final concentration of 300 nM forward and reverse primers. For each of the genes analyzed in this study, primers were designed using Primer-BLAST software (NCBI) and synthesized by IDT Technologies (San Diego, Calif.).

[2] = tested on: primary vaginal smooth muscle cells; assay: Fastin assay for elastin (tropoelastin and surface deposited elastin production); format: cell-based, human; settings: for tropoelastin production normalized to cell number (% of control) / cell culture surface deposited elastin production normalized to cell number (% of control): mean±SD; for vaginal smooth muscle cell elastin production (in words): cell cultures of the vagina from women who have undergone a hysterectomy; for cell culture surface deposited elastin production normalized to cell number (% of control): 48 hours of treatment
Protocol: After removal of the uterus, full-thickness samples of the anterior vaginal wall were obtained from the vaginal cuff at the anterior midline portion under sterile condition from four women without POP. Specimens were preserved in cold DMEM/F12 (Invitrogen, Carlsbad, Calif.) supplemented with 10% FBS, 1 mM glutamine, 0.075% Na2HCO3 and 100 ug/ml penicillin-streptomycin. After a maximum time of 4 hours from tissue harvesting the tissue was mechanically minced in cold cultured media and the fragments were washed 3 times in PBS and were plated onto fibronectin coated plastic dishes (Thermo Fischer Scientific, Rochester, N.Y.). After the initial outgrowth, clones with a morphology resembling the smooth muscle phenotype were patch cloned and propagated in culture. For cell characterization a 5000 cell/well fibronectin coated 8-well chamber slide was plated. Once cell confluence reached 80% the cells were washed twice with PBS and fixed in 4% PFA for 30 min at 37° C. To verify the intracytoplasmic distribution of F-actin fibers 4% PFA fixed cells were exposed to a permeabilizing solution of Tryton X100 0.1% and Rhodamine Phalloidin for 45 min at 37° C. Slides were then treated with mounting media (Vectashield, Vector Laboratories, Burlingame, Calif.) containing DAPI for nucleic acid staining and image acquisition was performed in glycerol immersion by confocal microscopy. In addition, the 8-well chamber slides were used to carry out the immunocytochemical staining. After blockage of endogenous peroxidase activity with a solution of hydrogen peroxide and methanol, slides were sequentially treated with the primary mouse antibody, biotinylated anti-mouse immunoglobulin, and Streptavidin-biotin-peroxidase complex (LSAB™+/HRP kit, Dako, Carpinteria, Calif.). Diaminobenzidine was used as a chromogen in the presence of hydrogen peroxide. Slides were then counterstained with hematoxylin. All reactions were carried out at room temperature (22° C.). To identify the SMC, anti-smooth muscle actin antibodies were used (monoclonal mouse, 1:250, 30 min incubation, clone 1A4, catalog #0851 Dako, Carpinteria, Calif.). Caldesmon expression was studied with a monoclonal mouse antibody, 1:100, 30 min incubation, (clone h-CD catalog #M3557 Dako, Carpinteria, Calif.). An antigen retrieval step was used for caldesmon using citrate buffer and a steamer for 30 min. As a negative control normal mouse serum was substituted for the antibody.
SMC from the fourth to sixth passages (5,000 cells per well) were cultured in 96-well or 6-well culture plates (Costar, Cambridge, Mass.), in a total volume of 200 μL or 2 mL DMEM/F-12 with 10% FBS and were grown to near confluence. Cells were incubated with zinc sulfate (10 μM, 20 μM), GW501516 (1 nM, 10 nM, 100 nM) or zinc sulfate with GW 501516 (20 μM with 10 nM) in 96-well plates with serum free DMEM/F-12. Treatment and control groups were performed in 6 replicate wells. Supernatants and cell lysates were collected 24 or 48 hrs after the initiation of treatment. Supernatants and cell lysates were treated with the Fastin Elastin Assay kit (Biocolor Ltd, UK) as recommended by the manufacturer. The Fastin Elastin Assay is a quantitative dye-binding method for the analysis of elastins extracted from biological materials. The dye label employed is 5, 10, 15, 20-tetraphenyl-21, 23-porphine tetra-suffocated (TPPS). The dye reagent binds to the ‘basic’ and ‘non-polar’ amino acid sequences found in mammalian elastins. Recovered dye-bound elastin from each sample and standard was read in a 96-well plate at 513 nm. All measurements were performed in quadruplicate. The measured elastin protein amounts were normalized to corresponding cell numbers to provide a reliable basis of comparison between samples.

[3] = tested on: ovariectomized (OVX) Sprague-Dawley rats; assay: Macroscopic measurements (genital hiatus, vaginal length) after 2 weeks vaginal suppositories; format: in vivo, rat; settings: vaginal suppositories 2 weeks (20 μM zinc sulfate, 10 nM GW501516, 0.01% estradiol), mean±SD; for genital hiatus (distance between the external urethral meatus and the mid anus): placebo 12.6±1.1; for vaginal length: placebo 14.1±1.1
Protocol: Ten to 12-weeks old female ovariectomized (OVX) Sprague-Dawley rats were utilized for the experiments. The animals were acclimatized to the environmental conditions before starting the experiment. The animals were housed individually and were allowed free access to water and rodent food. […] The suppositories were prepared according to the fusion method, using a polypeg suppository base ([…]., USA). […] Using a microwave, the suppository base was melted in a small beaker for 3 min and then transferred and kept into a water bath at a temperature of 55° C. The proper amount of above reagent was added to the liquefied base and meticulously crushed with a smooth rounded-end glass rod for about 20 min to make the solution to be even and clear. A pipette tip was used to suck some amount of solution and push it into a plastic tube with a diameter of 3.5 mm, and the tube was immediately left on the flat surface of an ice bucket. The suppository turned to white in color when it was solid. The moulded suppository was then pushed out of the tube using a round rod. […] After 30 min of cooling at room temperature, the suppositories were stored at 4° C. in a closed chamber until use. They were left to reach room temperature before use. The day after the last treatment the rats were overnight fasted and then sacrificed. Macroscopic measurement (genital hiatus, vaginal length) were taken and the vagina was dissected out carefully to avoid any injury to the vagina. The mid section of the vagina was utilized for histology (H and E stain, Masson's trichrome stain) and immunofluorescence and the rest of the vagina was used for RNA extraction and RT-PCR.

O.O.O.O.O.O.O.O=S(=O)([O-])[O-].[Zn+2] [zinc sulfate, zinc sulfate heptahydrate]
ratio of vaginal Col1a1 to Col3a1 mRNA expression [1]: 0.95±0.1 relative units
ratio of vaginal Col1a1 to Col5a1 mRNA expression [1]: 9.7±2.5 relative units
tropoelastin production normalized to cell number (% of control) ([2]; 10 μM, 48 hrs of culture): 113.3±11 % of control
tropoelastin production normalized to cell number (% of control) ([2]; 20 μM, 48 hrs of culture): 117±8.9 % of control
vaginal smooth muscle cell elastin production (in words) [2]: significantly increased
cell culture surface deposited elastin production normalized to cell number (% of control) ([2]; zinc sulfate 10 μM): 114.7±6 % of control
cell culture surface deposited elastin production normalized to cell number (% of control) ([2]; zinc sulfate 20 μM): 118.0±25 % of control
genital hiatus (distance between the external urethral meatus and the mid anus) [3]: 14.5±2.5 mm
vaginal length [3]: 15.6±4.0 mm

Cc1cc(SCc2sc(-c3ccc(C(F)(F)F)cc3)nc2C)ccc1OCC(=O)O [GW501516, 2-[2-methyl-4-([4-methyl-2-[4-(trifluoromethyl)phenyl)-1,3-thiazol-5-yl]methylsulfanyl]phenoxy]acetic acid]
ratio of vaginal Col1a1 to Col3a1 mRNA expression [1]: 1.0±0.2 relative units
ratio of vaginal Col1a1 to Col5a1 mRNA expression [1]: 8.8±3.0 relative units
tropoelastin production normalized to cell number (% of control) ([2]; 1 nM, 24 hrs of culture): 106.6±16 % of control
tropoelastin production normalized to cell number (% of control) ([2]; 10 nM, 24 hrs of culture): 120.5±16 % of control
tropoelastin production normalized to cell number (% of control) ([2]; 100 nm, 24 hrs of culture): 146.7±11 % of control
cell culture surface deposited elastin production normalized to cell number (% of control) ([2]; GW 10 nM): 108.2±6 % of control
cell culture surface deposited elastin production normalized to cell number (% of control) ([2]; GW 100 nM): 112.2±16 % of control
vaginal smooth muscle cell elastin production (in words) [2]: significantly increase
genital hiatus (distance between the external urethral meatus and the mid anus) [3]: 14.7±1.1 mm
vaginal length [3]: 15.5±1.0 mm
